Laboratory results: patent EP3892734B1, “SCREENING METHODS AND THERAPEUTIC APPLICATIONS BASED ON BACTERIAL MOTILITY INHIBITION” (Ludwig-Maximilians-Universität München, priority 2020, dated 2021)
Converted amounts (≈) assume the structure as drawn. “And” between values parts separate entries of the source, which are not always exact repeats. Equal values may be shown once. Read-outs that look alike come from different tables or passages of the source.

What was measured:
[1] = system: flagellin protein FlaA; test: Western immunoblot of flagellin FlaA in bacterial fractions; assay type: cell-based, H. pylori; settings: Western blot, soluble and surface-associated fractions, time point T2
Source text: • Fig. 1: Developing and establishing a screening system by primary luciferase-based reporter screen for flagellar expression and biosynthesis of H. pylori in multi-well plates and identification of active small compounds by the screen. A) Results of luciferase flagellar reporter screen for one exemplary library of more than 1200 compounds; each dot represents one compound result. […] Inhibitory as well as enhancing activities of the compounds were observed. Yellow markings depict the borders of the Z-factor, corresponding to the three-fold standard error of the positive (non-inhibited) controls. […] Tracking assays with H. pylori were performed in liquid medium (RPMI1640 with 3% horse serum) and movies recorded in a CELL-R live imaging system (Olympus, see methods). A) Stops/reversals during the swimming runs of the bacteria as a measure of intact taxis and directional motility and curvilinear velocity (CLV) were quantitated as described in (Behrens et al., 2016). […] Two different time points of an H. pylori growth curve in liquid BHI medium (3% yeast extract, 5% horse serum), T1 (early exponential) T2 (late exponential growth) were monitored for differences in protein expression in the presence (+) or absence of Active 2 compound. […] Highquality sequences obtained from cagL positive PCRs in the absence of positive culture are boxed; respective Sanger sequence reads are shown in B). […]

[2] = system: H. pylori flaA-luciferase reporter strain N6; test: microbe, parasite or virus in culture; assay type: cell-based, Helicobacter pylori
Source text: The H. pylori flaA promoter was fused with a luciferase operon (luxAB) from Vibrio harveyi in a H. pylori suicide plasmid (Niehus, Ye, Suerbaum, & Josenhans, 2002). The flaA reporter fusion was recombined into the H. pylori chromosome and the resulting strain tested to be strongly luminescence positive. The reporter strain (N6 flaA-lux4B) activated luminescence to about 40,000 to 60,000 counts per second using luciferase substrate at an OD600 of 0.8 (mid-log phase) in liquid culture. The negative control value of a non-reporter strain or reporter strain without luminescence substrate was close to zero. […] The Z-Factor (Zhang et al., 1999) determined for the assay with various bacterial inhibitors measured in quadruplicates or triplicates was routinely between 0.6 and 0.7, with a confidence interval of 95%.
H. pylori luminescence reporter strains were passaged on blood agar plates less than 22 hours prior to the start of the experiment. The passage number for these assays was not higher than five to preserve the strain's properties and genetic stability. Luciferase reaction buffer was prepared as follows: 50 mM disodium phosphate (Na2HPO4) and 2% BSA were dissolved in HPLC water, filter sterilized, aliquoted and frozen at - 20°C.
Bacteria were harvested in brain-heart infusion medium (BHI, 3% yeast extract with 5% horse serum added) and adjusted to an OD600 of 0.8 at room temperature. 50 µl of the bacterial suspension were added per well of a 96 well plate (non-binding, Greiner Bio-One 655901). 2 µl of each of the test compounds (provided as a 10 mM DMSO solution) were added to the sample wells. The same amount of pure, diluted DMSO was added to the control wells for a concentration of a maximum of 4% DMSO per well, since higher concentrations will interfere with metabolic functions of H. pylori and cause false negative results. The microwell plate was incubated inside a sterile sealed PM Gas Bag (BIOLOG #3032) together with a CampyGen Compact pack (Oxoid) to generate microaerobic conditions at 37°C and with shaking at 175 rpm for 4 h.
Shortly before taking the measurement, the luciferase substrate was prepared by diluting the luminescence substrate decanal (10% stock, Sigma Aldrich) at a 1 :2,000 dilution in luciferase reaction buffer. 60 µl of the substrate were added per well of a white 96 microwell plate (Thermo Scientific #236105) without the lid.
For the final luciferase measurement, 10 µl of bacterial solution were transferred with the epMotion 96 (Eppendorf) simultaneously to the wells containing the luciferase substrate and incubated on a microwell plate shaker for 10 s to lyse the bacteria. The measurements were recorded with a Perkin Elmer Victor 3/WNallac 1420 plate reader (luminometry, measurement time: 0.5 sec) and integrated to counts per sec. For the background measurement, 10 µl sterile medium containing 4% DMSO was added to the wells. For each measurement, at least four luciferase reporter positive control wells (without inhibitory compound) and four negative control wells (background without bacteria) were run on the same day and under the same assay conditions in parallel.

[3] = system: H. pylori N6; test: vitality / metabolic (respiratory inhibition) counter-screen; assay type: cell-based, Helicobacter pylori; settings: > 100% indicates no inhibition

Cn1c(CSC(=N)N)c(Cl)c(=O)n1-c1ccccc1 [Active 2]
amount of major flagellin FlaA [1]: significant reduction of main flagellin FlaA at time point T2
amount of major flagellin FlaA ([1]; listed as Active 2/BL2): reduced the amounts of the major flagellin, FlaA
IC50 ([2]; H. pylori flaA-luciferase reporter strain N6, Table 6): 2.75 µg/mL (≈ 9.27 µM)
Luciferase assay (% of control) ([2]; H. pylori screen): 2,6 % of control
IC50 ([2]; Helicobacter pylori, H. pylori flaA-luciferase reporter strain N6, Table 6): < 4.5 µg/mL
IC50 ([2]; Helicobacter pylori, read-out: IC50 (luciferase assay), luciferase flagellar reporter assay, Table 3): 2.74 µg/mL and 8 µM
inhibitory activity in luciferase reporter assay ([2]; result in words): strong inhibitor in the primary anti-flagellar reporter screen
Metabolic assay (% of control) [3]: 102,2 % of control
